Experimental data as given in US9546156B2, “N-bicyclic aryl,N'-pyrazolyl urea, thiourea, guanidine cyanoguanidine compounds as TrkA kinase inhibitors” (Array BioPharma Inc., priority 2012, dated 2017).
Structures can show the parent of a compound that is named as a salt.

target: T1, His-tagged recombinant human TrkA (Homo sapiens, UniProt P04629); test: TrkA LanthaScreen Eu Kinase Binding Assay; settings: averaged IC50; TR-FRET binding assay, 60 min, 22° C.; read-out: TrkA Enzyme IC50
T1 construct: 6HIS tagged cytoplasmic domain from Invitrogen, Catalog No. PV3144; purchased Invitrogen PV3144
T1 sequence (P04629 440-796 limits assumed): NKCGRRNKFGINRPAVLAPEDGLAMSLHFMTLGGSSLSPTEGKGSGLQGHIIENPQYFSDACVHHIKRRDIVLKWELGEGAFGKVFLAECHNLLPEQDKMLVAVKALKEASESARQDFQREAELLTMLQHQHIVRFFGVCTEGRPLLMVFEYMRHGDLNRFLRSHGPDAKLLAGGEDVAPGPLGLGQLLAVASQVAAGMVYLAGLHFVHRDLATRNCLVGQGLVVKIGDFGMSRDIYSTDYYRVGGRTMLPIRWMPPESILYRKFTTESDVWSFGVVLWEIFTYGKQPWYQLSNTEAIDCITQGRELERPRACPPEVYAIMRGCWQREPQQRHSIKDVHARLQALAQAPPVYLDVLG
Method: TrkA binding activity was determined in a TrkA LanthaScreen™ Eu Kinase Binding Assay. 5 nM His-tagged recombinant human TrkA (6HIS tagged cytoplasmic domain from Invitrogen, Catalog No. PV3144) was incubated with 4 nM Alexa-Fluor® Tracer 236 (Invitrogen Cat. No. PV5592), 2 nM biotinylated anti-His (Invitrogen Cat. No. PV6090), and 2 nM europium-labeled Streptavidin (Invitrogen Cat. No. PV5899), in buffer (25 mM MOPS, pH 7.5, 5 mM MgCl2, 0.005% Triton X-100). Three fold serial dilutions of compounds of the invention in DMSO were added to a final percentage of 2% DMSO. After 60-minute incubation at 22° C., the reaction was measured using the EnVision multimode plate reader (PerkinElmer) via TR-FRET dual wavelength detection at […]. The percent of control was calculated using a ratiometric emission factor. The IC50 values were determined by fitting a four parameter model to the percent of control data.
Table A provides averaged IC50 values for compounds of the invention when tested in the assay of Example A, where A represents an averaged IC50 value <100 nM; B represents an averaged IC50 value from 100 to 1,000 nM; and C represents an averaged IC50 value from 1,000 to 10,000 nM.

| Compound | IC50 [nM] |
| --- | --- |
| COCc1ccc2cccc(NC(=O)Nc3c(C)c(-c4ccc(=O)n(C)c4)nn3-c3ccccc3)c2c1 [Example 17, 1-(7-(methoxymethyl)naphthalen-1-yl)-3-(4-methyl-3-(1-methyl-6-oxo-1,6-dihydropyridin-3-yl)-1-phenyl-1H-pyrazol-5-yl)urea] | < 100 |
| Cc1c(-c2cnn(C)c2)nn(-c2ccccc2)c1NC(=O)Nc1cncc2ccccc12 [Example 24, 1-(1′,4-dimethyl-1-phenyl-1H,1′H-3,4′-bipyrazol-5-yl)-3-(isoquinolin-4-yl)urea] | 1000 to 10000 |
| COCc1cc2c(NC(=O)Nc3c(C)c(-c4cnn(C)c4)nn3-c3ccccc3)cccc2cn1 [Example 3, 1-(1′,4-dimethyl-1-phenyl-1H,1′H-[3,4′-bipyrazol]-5-yl)-3-(3-(methoxymethyl)isoquinolin-5-yl)urea trifluoroacetate] | < 100 |
| O=C(Nc1ccc(Cl)c2ccccc12)Nc1c(Cl)c(OCC2CCNCC2)nn1-c1ccccc1 [Example 11, 1-(4-chloro-1-phenyl-3-(piperidin-4-ylmethoxy)-1H-pyrazol-5-yl)-3-(4-chloronaphthalen-1-yl)urea hydrochloride] | < 100 |
| Cc1c(-c2ccc(=O)n(C)c2)nn(-c2ccccc2)c1NC(=O)Nc1cncc2ccccc12 [Example 25, 1-(isoquinolin-4-yl)-3-(4-methyl-3-(1-methyl-6-oxo-1,6-dihydropyridin-3-yl)-1-phenyl-1H-pyrazol-5-yl)urea] | 100 to 1000 |
| CNC(=O)c1nn(-c2ccccc2)c(NC(=O)Nc2ccc(Cl)c3ccccc23)c1C [Example 8, 5-(3-(4-chloronaphthalen-1-yl)ureido)-N,4-dimethyl-1-phenyl-1H-pyrazole-3-carboxamide] | < 100 |
| Cc1c(C2CCN(CC(F)(F)F)CC2)nn(-c2ccccc2)c1NC(=O)Nc1ccc(Cl)c2ccccc12 [Example 13, 1-(4-chloronaphthalen-1-yl)-3-(4-methyl-1-phenyl-3-(1-(2,2,2-trifluoroethyl)piperidin-4-yl)-1H-pyrazol-5-yl)urea] | < 100 |
| COCc1cc2c(NC(=O)Nc3c(C)c(-c4cnn(C)c4)nn3-c3ccccc3)ccc(Cl)c2cn1 [Example 6, 1-(8-chloro-3-(methoxymethyl)isoquinolin-5-yl)-3-(1′,4-dimethyl-1-phenyl-1H,1′H-[3,4′-bipyrazol]-5-yl)urea] | < 100 |
| COCc1ccc2ccc(Cl)c(NC(=O)Nc3c(C)c(-c4cnn(C)c4)nn3-c3ccccc3)c2c1 [Example 18, 1-(2-chloro-7-(methoxymethyl)naphthalen-1-yl)-3-(1′,4-dimethyl-1-phenyl-1H,1′H-[3,4′-bipyrazol]-5-yl)urea] | < 100 |
| Cc1c(C2CCNCC2)nn(-c2ccccc2)c1NC(=O)Nc1ccc(Cl)c2ccccc12 [Example 12, 1-(4-chloronaphthalen-1-yl)-3-(4-methyl-1-phenyl-3-(piperidin-4-yl)-1H-pyrazol-5-yl)urea hydrochloride] | < 100 |
| Cc1c(-c2cnn(C)c2)nn(-c2ccccc2)c1NC(=O)Nc1cccc2ccccc12 [Example 10, 1-(1′,4-dimethyl-1-phenyl-1H,1′H-[3,4′-bipyrazol]-5-yl)-3-(naphthalen-1-yl)urea] | 100 to 1000 |
| COC[C@H](O)COc1nn(-c2ccccc2)c(NC(=O)Nc2ccc(Cl)c3ccccc23)c1C [Example 15, (S)-1-(4-chloronaphthalen-1-yl)-3-(3-(2-hydroxy-3-methoxypropoxy)-4-methyl-1-phenyl-1H-pyrazol-5-yl)urea] | < 100 |
| COCc1cc2c(NC(=O)Nc3c(C)c(-c4cnn(C)c4)nn3-c3ccccc3)c(Cl)ccc2cn1 [Example 4, 1-(6-chloro-3-(methoxymethyl)isoquinolin-5-yl)-3-(1′,4-dimethyl-1-phenyl-1H,1′H-[3,4′-bipyrazol]-5-yl)urea] | 100 to 1000 |
| Cc1c(C2CCNCC2)nn(-c2ccccc2)c1NC(=O)Nc1ncc(Cl)c2ccccc12 [Example 22, 1-(4-chloroisoquinolin-1-yl)-3-(4-methyl-1-phenyl-3-(piperidin-4-yl)-1H-pyrazol-5-yl)urea hydrochloride] | 1000 to 10000 |
| COCc1ccc2c(Cl)ccc(NC(=O)Nc3c(C)c(-c4ccc(=O)n(C)c4)nn3-c3ccccc3)c2c1 [Example 21, 1-(4-chloro-7-(methoxymethyl)naphthalen-1-yl)-3-(4-methyl-3-(1-methyl-6-oxo-1,6-dihydropyridin-3-yl)-1-phenyl-1H-pyrazol-5-yl)urea] | < 100 |
| O=C(Nc1ccc(Cl)c2ccccc12)Nc1c2c(nn1-c1ccccc1)CCC2 [Example 2, 1-(4-chloronaphthalen-1-yl)-3-(2-phenyl-2,4,5,6-tetrahydrocyclopenta[c]pyrazol-3-yl)urea] | < 100 |
| COCc1ccc2c(Cl)ccc(NC(=O)Nc3c(C)c(C4CCN(C)CC4)nn3-c3ccccc3)c2c1 [Example 20, 1-(4-chloro-7-(methoxymethyl)naphthalen-1-yl)-3-(4-methyl-3-(1-methylpiperidin-4-yl)-1-phenyl-1H-pyrazol-5-yl)urea hydrochloride] | < 100 |
| Cc1c(-c2ccc(=O)n(C)c2)nn(-c2ccccc2)c1NC(=O)Nc1ccc(Cl)c2ccccc12 [Example 1, 1-(4-chloronaphthalen-1-yl)-3-(4-methyl-3-(1-methyl-6-oxo-1,6-dihydropyridin-3-yl)-1-phenyl-1H-pyrazol-5-yl)urea] | < 100 |
| Cc1c(C(N)=O)nn(-c2ccccc2)c1NC(=O)Nc1ccc(Cl)c2ccccc12 [Example 7, 5-(3-(4-chloronaphthalen-1-yl)ureido)-4-methyl-1-phenyl-1H-pyrazole-3-carboxamide] | < 100 |
| Cc1c(-c2cnn(C)c2)nn(-c2ccccc2)c1NC(=O)Nc1ncc(Cl)c2ccccc12 [Example 23, 1-(4-chloroisoquinolin-1-yl)-3-(1′,4-dimethyl-1-phenyl-1H,1′H-[3,4′-bipyrazol]-5-yl)urea] | 1000 to 10000 |
| COCc1cc2c(NC(=O)Nc3c(C)c(-c4cnn(C)c4)nn3-c3ccccc3)ccc(Br)c2cn1 [Example 5, 1-(8-bromo-3-(methoxymethyl)isoquinolin-5-yl)-3-(1′,4-dimethyl-1-phenyl-1H,1′H-[3,4′-bipyrazol]-5-yl)urea] | < 100 |
| Cc1c(C2CCN(C)CC2)nn(-c2ccccc2)c1NC(=O)Nc1ccc(Cl)c2ccccc12 [Example 14, 1-(4-chloronaphthalen-1-yl)-3-(4-methyl-3-(1-methylpiperidin-4-yl)-1-phenyl-1H-pyrazol-5-yl)urea hydrochloride] | < 100 |
| Cc1c(-c2cnn(C)c2)nn(-c2ccccc2)c1NC(=O)Nc1ccc(Cl)c2ccccc12 [Example 9, 1-(4-chloronaphthalen-1-yl)-3-(1′,4-dimethyl-1-phenyl-1H,1′H-[3,4′-bipyrazol]-5-yl)urea] | < 100 |
| COCc1ccc2c(Cl)ccc(NC(=O)Nc3c(C)c(-c4cnn(C)c4)nn3-c3ccccc3)c2c1 [Example 19, 1-(4-chloro-7-(methoxymethyl)naphthalen-1-yl)-3-(1′,4-dimethyl-1-phenyl-1H,1′H-[3,4′-bipyrazol]-5-yl)urea] | < 100 |
